How the values were obtained:
rat cortical neurons = assay: Hypoxia-induced apoptosis of rat cortical neurons; type: cell-based, Wistar rat; conditions: Cortical neurone, 95% N2/5% CO2, Cell Death Detection ELISA (DNA fragmentation)
Experimental: Cortical neurons are dissociated from Wistar rat embryos (E17) by a modification of the procedure of Rogers et al. 1997, Brain Res. Bulletin, 44:131. Briefly, cerebral cortices are isolated aseptically from 15-20 Wistar rat embryos. A cell suspension is prepared by mincing the cerebral cortices and digesting them with papain. Cells are washed with ovomucoid enzyme inhibitor and DNaseI and plated onto Poly-D lysine coated plates in high glucose DMEM containing 10% heat-inactivated fetal calf serum, L-glutamine, penicillin and streptomycin. The yield of neurons is […] per embryo and they are 80-90% viable as assessed by Trypan blue exclusion.
The neurons are cultured in complete medium at 37° C. in a normal atmosphere for 48 hours prior to the hypoxia experiments. For hypoxia, the normal cell medium is replaced by oxygen-depleted serum-free medium. Cells are incubated in an atmosphere of 95% N2/5% CO2 for various lengths of time. Compounds are dissolved in DMSO at 100 mM then diluted in medium and added to the culture from time=0. The level of apoptosis is measured using a Cell Death Detection ELISA kit (Roche) which detects DNA fragmentation. Plates are read at 405 nm. Controls included cells cultured in aerobic conditions in serum-containing medium (+serum) and cells cultured in aerobic conditions in serum-deprived medium (−serum).

[1] = system: IL-1β secretion from human whole blood; assay: Inhibition of IL-1β secretion from whole blood; type: cell-based; conditions: human whole blood diluted 1:2, LPS 5 ng/ml, 18 hours, ELISA
Experimental: Human blood is freshly drawn from healthy donors and diluted 1:2 in PBS. To 500 μl of diluted blood […] of prediluted test compound in RPMI medium and […] LPS (5 ng/ml final concentration on the plate) are added (LPS, Serotype 0111:B4, Sigma L3012). After stimulation for 18 hours supernatants are collected and assayed for IL-1β levels using the appropriate ELISA kit (R&D systems).

Jurkat E6.1 cells = assay: Anti-Fas induced apoptosis assay; type: cell-based; conditions: Homo sapiens, anti-Fas antibody CH-11 10 ng/ml, 16-18 hrs, DNA fragmentation
Source text: Cellular apoptosis may be induced by the binding of Fas ligand (FasL) to its receptor, CD95 (Fas). CD95 is one of a family of related receptors, known as death receptors, which can trigger apoptosis in cells via activation of the caspase enzyme cascade. The process is initiated by the binding of the adapter molecule FADD/MORT-1 to the cytoplasmic domain of the CD-95 receptor-ligand complex. Caspase-8 then binds FADD and becomes activated, initiating a cascade of events that involve the activation of downstream caspases and subsequent cellular apoptosis. Apoptosis can also be induced in cells expressing CD95 e.g., the Jurkat E6.1 T cell lymphoma cell line, using an antibody, rather than FasL, to crosslink the cell surface CD95. Anti-Fas-induced apoptosis is also triggered via the activation of caspase-8. This provides the basis of a cell based assay to screen compounds for inhibition of the caspase-8-mediated apoptotic pathway.
Jurkat E6.1 cells are cultured in complete medium consisting of RPMI-1640 (Sigma No)+10% foetal calf serum (Gibco BRL No. 10099-141)+2 mM L-glutamine (Sigma No. G-7513). The cells are harvested in log phase of growth. 100 ml of cells at 5-8×10^5 cells/ml are transferred to sterile 50 ml Falcon centrifuge tubes and centrifuged for 5 minutes at 100×g at room temperature. The supernatant is removed and the combined cell pellets resuspended in 25 ml of complete medium. The cells are counted and the density adjusted to 2×10^6 cells/ml with complete medium.
The test compound is dissolved in dimethyl sulfoxide (DMSO)(Sigma No. D-2650) to give a 100 mM stock solution. This is diluted to 400 μM in complete medium, then serially diluted in a 96-well plate prior to addition to the cell assay plate.
100 μl of the cell suspension ([…]) is added to each well of a sterile 96-well round-bottomed cluster plate (Costar No. 3790). 50 μl of compound solution at the appropriate dilution and 50 μl of anti-Fas antibody, clone CH-11 (Upstate, Cat No. 1 544 675) at a final concentration of 10 ng/ml, are added to the wells. Control wells are set up minus antibody and minus compound but with a serial dilution of DMSO as vehicle control. The plates are incubated for 16-18 hrs at 37° C. in 5% CO2 and 95% humidity.
Apoptosis of the cells is measured by the quantitation of DNA fragmentation using a ‘Cell Death Detection Assay’ from Roche diagnostics, No. 1544 675. After incubation for 16-18 hrs the assay plates are centrifuged at 100×g at room temperature for 5 minutes. 150 μl of the supernatant are removed and replaced by 150 μl of fresh complete medium. The cells are then harvested and 200 μl of the lysis buffer supplied in the assay kit are added to each well. The cells are triturated to ensure complete lysis and incubated for 30 minutes at 4° C. The plates are then centrifuged at 1900×g for 10 minutes and the supernatants diluted 1:20 in the incubation buffer provided. 100 μl of this solution is then assayed according to the manufacturer's instructions supplied with the kit. OD405 nm is measured 20 minutes after addition of the final substrate in a SPECTRAmax Plus plate reader (Molecular Devices). OD405 nm is plotted versus compound concentration and the IC50 values for the compounds are calculated using the curve-fitting program SOFTmax Pro (Molecular Devices) using the four parameter fit option.

| Structure (SMILES) | IC50 [1] | IC50 (Jurkat E6.1 cells) | IC50 (rat cortical neurons) |
| --- | --- | --- | --- |
| CCC(=O)Nc1cccn([C@@H](CC(C)C)C(=O)NC(CC(=O)O)C(=O)CF)c1=O (stereo partly drawn) [Compound 36, (S)-5-Fluoro-3-[4-methyl-2-(2-oxo-3-propionylamino-2H-pyridin-1-yl)-pentanoylamino]-4-oxo-pentanoic acid] | 500 to 5000 nM | 500 to 2000 nM | 1000 to 10000 nM |
| CC[C@@H](C(=O)N[C@@H](CC(=O)O)C(=O)COc1c(F)c(F)cc(F)c1F)n1cccc(NS(=O)(=O)CC)c1=O [Compound 18, (S,S)-3-[2-(3-Ethanesulfonylamino-2-oxo-2H-pyridin-1-yl)-butyrylamino]-4-oxo-5-(2,3,5,6-tetrafluoro-phenoxy)-pentanoic acid] | 500 to 5000 nM | < 500 nM | 1000 to 10000 nM |
| CC[C@@H](C(=O)N[C@@H](CC(=O)O)C(=O)COc1c(F)c(F)cc(F)c1F)n1cccc(NC(=O)C(C)C)c1=O [Compound 5, (S,S)-3-[2-(3-Isobutyrylamino-2-oxo-2H-pyridin-1-yl)-butyrylamino]-4-oxo-5-(2,3,5,6-tetrafluoro-phenoxy)-pentanoic acid] | < 500 nM | < 500 nM | < 1000 nM |
| CC[C@@H](C(=O)N[C@@H](CC(=O)O)C(=O)COc1c(F)c(F)cc(F)c1F)n1cc(C(F)(F)F)cc(NS(=O)(=O)CC)c1=O [Compound 22, (S,S)-3-[2-(3-Ethanesulfonylamino-2-oxo-5-trifluoromethyl-2H-pyridin-1-yl)-butyrylamino]-4-oxo-5-(2,3,5,6-tetrafluoro-phenoxy)-pentanoic acid] | 500 to 5000 nM | < 500 nM | < 1000 nM |
| CC[C@@H](C(=O)N[C@@H](CC(=O)O)C(=O)COc1c(F)c(F)cc(F)c1F)n1cccc(NC(C)=O)c1=O [Compound 1, (S,S)-3-[2-(3-Acetylamino-2-oxo-2H-pyridin-1-yl)-butyrylamino]-4-oxo-5-(2,3,5,6-tetrafluoro-phenoxy)-pentanoic acid] | < 500 nM | < 500 nM | 1000 to 10000 nM |
| CC[C@@H](C(=O)N[C@@H](CC(=O)O)C(=O)COc1c(F)c(F)cc(F)c1F)n1cccc(NC(=O)c2ccco2)c1=O [Compound 7, (S,S)-3-(2-{3-[(Furan-2-carbonyl)-amino]-2-oxo-2H-pyridin-1-yl}-butyrylamino)-4-oxo-5-(2,3,5,6-tetrafluoro-phenoxy)-pentanoic acid] | < 500 nM | < 500 nM | 1000 to 10000 nM |
| CCC[C@@H](C(=O)NC(CC(=O)O)C(=O)CF)n1cccc(NC(=O)CC)c1=O (stereo partly drawn) [Compound 35, (S)-5-Fluoro-4-oxo-3-[2-(2-oxo-3-propionylamino-2H-pyridin-1-yl)-pentanoylamino]-pentanoic acid] |  | < 500 nM | 1000 to 10000 nM |
| CCCS(=O)(=O)Nc1cccn([C@@H](CC)C(=O)N[C@@H](CC(=O)O)C(=O)COc2c(F)c(F)cc(F)c2F)c1=O [Compound 19, (S,S)-4-Oxo-3-{2-[2-oxo-3-(propane-1-sulfonylamino)-2H-pyridin-1-yl]-butyrylamino}-5-(2,3,5,6-tetrafluoro-phenoxy)-pentanoic acid] | 500 to 5000 nM | < 500 nM | 1000 to 10000 nM |
| CC[C@@H](C(=O)NC(CC(=O)O)C(=O)CF)n1cc(C)cc(NC(=O)Cc2ccccc2)c1=O (stereo partly drawn) [Compound 37, (S)-5-Fluoro-3-[2-(5-methyl-2-oxo-3-phenylacetylamino-2H-pyridin-1-yl)-butyrylamino]-4-oxo-pentanoic acid] |  | < 500 nM | 1000 to 10000 nM |
| CC[C@@H](C(=O)NC(CC(=O)O)C(=O)CF)n1cccc(NC(=O)Cc2cccc(C)c2)c1=O (stereo partly drawn) [Compound 34, (S)-5-Fluoro-4-oxo-3-{2-[2-oxo-3-(2-m-tolyl-acetylamino)-2H-pyridin-1-yl]-butyrylamino}-pentanoic acid] |  | < 500 nM | 1000 to 10000 nM |

Further lines, with some results ahead:

| IC50 [1] | IC50 (Jurkat E6.1 cells) | Structure (SMILES) | IC50 (rat cortical neurons) |
| --- | --- | --- | --- |
|  | < 500 nM | C[C@@H](C(=O)NC(CC(=O)O)C(=O)CF)n1cccc(NC(=O)c2c(Cl)cccc2Cl)c1=O (stereo partly drawn) [Compound 27, (S)-3-{2-[3-(2,6-Dichloro-benzoylamino)-2-oxo-2H-pyridin-1-yl]-propionylamino}-5-fluoro-4-oxo-pentanoic acid] |  |
| < 500 nM | < 500 nM | CC[C@@H](C(=O)N[C@@H](CC(=O)O)C(=O)COc1c(F)c(F)cc(F)c1F)n1cccc(NC(=O)c2ccccc2)c1=O [Compound 11, (S,S)-3-[2-(3-Benzoylamino-2-oxo-2H-pyridin-1-yl)-butyrylamino]-4-oxo-5-(2,3,5,6-tetrafluoro-phenoxy)-pentanoic acid] | < 1000 nM |
|  | < 500 nM | CCC(=O)Nc1cccn([C@@H](C)C(=O)NC(CC(=O)O)C(=O)CF)c1=O (stereo partly drawn) [Compound 25, (S)-5-Fluoro-4-oxo-3-[2-(2-oxo-3-propionylamino-2H-pyridin-1-yl)-propionylamino]-pentanoic acid] |  |
|  | < 500 nM | CC[C@@H](C(=O)NC(CC(=O)O)C(=O)CF)n1cccc(NC(=O)c2ccccc2)c1=O (stereo partly drawn) [Compound 30, (S)-3-[2-(3-Benzoylamino-2-oxo-2H-pyridin-1-yl)-butyrylamino]-5-fluoro-4-oxo-pentanoic acid] | 1000 to 10000 nM |
|  | < 500 nM | CC[C@@H](C(=O)NC(CC(=O)O)C(=O)CF)n1cccc(NC(=O)Cc2ccccc2)c1=O (stereo partly drawn) [Compound 33, (S)-5-Fluoro-4-oxo-3-[2-(2-oxo-3-phenylacetylamino-2H-pyridin-1-yl)-butyrylamino]-pentanoic acid] |  |
|  | 500 to 2000 nM | C[C@@H](C(=O)NC(CC(=O)O)C(=O)CF)n1cccc(NC(=O)c2ccccc2)c1=O (stereo partly drawn) [Compound 26, (S)-3-[2-(3-Benzoylamino-2-oxo-2H-pyridin-1-yl)-propionylamino]-5-fluoro-4-oxo-pentanoic acid] |  |
|  | < 500 nM | CC[C@@H](C(=O)NC(CC(=O)O)C(=O)CF)n1cccc(NC(=O)c2ccccn2)c1=O (stereo partly drawn) [Compound 32, (S)-5-Fluoro-4-oxo-3-(2-{2-oxo-3-[(pyridine-2-carbonyl)-amino]-2H-pyridin-1-yl}-butyrylamino)-pentanoic acid] |  |
| 500 to 5000 nM | 500 to 2000 nM | C[C@@H](C(=O)NC(CC(=O)O)C(=O)CF)n1cccc(NC(=O)Cc2ccccc2)c1=O (stereo partly drawn) [Compound 28, (S)-5-Fluoro-4-oxo-3-[2-(2-oxo-3-phenylacetylamino-2H-pyridin-1-yl)-propionylamino]-pentanoic acid] |  |
|  | < 500 nM | CC[C@@H](C(=O)NC(CC(=O)O)C(=O)CF)n1cccc(NC(=O)c2c(Cl)cccc2Cl)c1=O (stereo partly drawn) [Compound 31, (S)-3-{2-[3-(2,6-Dichloro-benzoylamino)-2-oxo-2H-pyridin-1-yl]-butyrylamino}-5-fluoro-4-oxo-pentanoic acid] | 1000 to 10000 nM |

Source: patent US7960415B2, “Caspase inhibitors and uses thereof” (Vertex Pharmaceutical Incoporated, priority 2003, dated 2011)
